How the values were obtained:
[1] = molecular target: Serine/threonine-protein kinase pim-1 (Homo sapiens) (UniProt P11309); test: Inhibition of human PIM1 assessed as residual activity at 1 uM relative to control
[2] = molecular target: Tyrosine-protein kinase Yes (Homo sapiens) (UniProt P07947); test: Inhibition of human YES1 assessed as residual activity at 1 uM relative to control
[3] = molecular target: Tyrosine-protein kinase CSK (Homo sapiens) (UniProt P41240); test: Inhibition of human CSK assessed as residual activity at 10 uM relative to control
[4] = molecular target: Rho-associated protein kinase 2 (Rattus norvegicus) (UniProt Q62868); test: Inhibition of rat ROCK2 assessed as residual activity at 1 uM relative to control
[5] = molecular target: Maternal embryonic leucine zipper kinase (Homo sapiens) (UniProt Q14680); test: Inhibition of human MELK assessed as residual activity at 1 uM relative to control
Maternal embryonic leucine zipper kinase (Homo sapiens), sequence (Q14680 whole entry, looked up): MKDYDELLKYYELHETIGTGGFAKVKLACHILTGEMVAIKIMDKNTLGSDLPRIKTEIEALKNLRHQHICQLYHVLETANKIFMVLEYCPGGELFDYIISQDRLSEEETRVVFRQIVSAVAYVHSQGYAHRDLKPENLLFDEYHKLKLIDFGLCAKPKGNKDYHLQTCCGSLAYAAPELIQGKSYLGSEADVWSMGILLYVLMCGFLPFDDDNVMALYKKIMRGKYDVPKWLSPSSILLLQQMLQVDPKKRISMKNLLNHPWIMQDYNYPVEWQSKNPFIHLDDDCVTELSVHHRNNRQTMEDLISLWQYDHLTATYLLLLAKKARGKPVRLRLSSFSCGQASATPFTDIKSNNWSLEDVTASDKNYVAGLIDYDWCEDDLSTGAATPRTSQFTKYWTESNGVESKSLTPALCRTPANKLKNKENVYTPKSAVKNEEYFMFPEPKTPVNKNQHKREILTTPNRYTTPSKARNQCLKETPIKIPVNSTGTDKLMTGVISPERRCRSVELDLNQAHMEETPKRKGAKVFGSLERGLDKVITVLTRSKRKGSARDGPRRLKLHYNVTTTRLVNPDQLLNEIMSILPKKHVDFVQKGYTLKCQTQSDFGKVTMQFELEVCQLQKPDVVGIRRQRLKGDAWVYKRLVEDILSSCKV

[6] = molecular target: Homeodomain-interacting protein kinase 2 (Homo sapiens) (UniProt Q9H2X6); test: Inhibition of human HIPK2 assessed as residual activity at 10 uM relative to control
Homeodomain-interacting protein kinase 2 (Homo sapiens), sequence (Q9H2X6 whole entry, looked up): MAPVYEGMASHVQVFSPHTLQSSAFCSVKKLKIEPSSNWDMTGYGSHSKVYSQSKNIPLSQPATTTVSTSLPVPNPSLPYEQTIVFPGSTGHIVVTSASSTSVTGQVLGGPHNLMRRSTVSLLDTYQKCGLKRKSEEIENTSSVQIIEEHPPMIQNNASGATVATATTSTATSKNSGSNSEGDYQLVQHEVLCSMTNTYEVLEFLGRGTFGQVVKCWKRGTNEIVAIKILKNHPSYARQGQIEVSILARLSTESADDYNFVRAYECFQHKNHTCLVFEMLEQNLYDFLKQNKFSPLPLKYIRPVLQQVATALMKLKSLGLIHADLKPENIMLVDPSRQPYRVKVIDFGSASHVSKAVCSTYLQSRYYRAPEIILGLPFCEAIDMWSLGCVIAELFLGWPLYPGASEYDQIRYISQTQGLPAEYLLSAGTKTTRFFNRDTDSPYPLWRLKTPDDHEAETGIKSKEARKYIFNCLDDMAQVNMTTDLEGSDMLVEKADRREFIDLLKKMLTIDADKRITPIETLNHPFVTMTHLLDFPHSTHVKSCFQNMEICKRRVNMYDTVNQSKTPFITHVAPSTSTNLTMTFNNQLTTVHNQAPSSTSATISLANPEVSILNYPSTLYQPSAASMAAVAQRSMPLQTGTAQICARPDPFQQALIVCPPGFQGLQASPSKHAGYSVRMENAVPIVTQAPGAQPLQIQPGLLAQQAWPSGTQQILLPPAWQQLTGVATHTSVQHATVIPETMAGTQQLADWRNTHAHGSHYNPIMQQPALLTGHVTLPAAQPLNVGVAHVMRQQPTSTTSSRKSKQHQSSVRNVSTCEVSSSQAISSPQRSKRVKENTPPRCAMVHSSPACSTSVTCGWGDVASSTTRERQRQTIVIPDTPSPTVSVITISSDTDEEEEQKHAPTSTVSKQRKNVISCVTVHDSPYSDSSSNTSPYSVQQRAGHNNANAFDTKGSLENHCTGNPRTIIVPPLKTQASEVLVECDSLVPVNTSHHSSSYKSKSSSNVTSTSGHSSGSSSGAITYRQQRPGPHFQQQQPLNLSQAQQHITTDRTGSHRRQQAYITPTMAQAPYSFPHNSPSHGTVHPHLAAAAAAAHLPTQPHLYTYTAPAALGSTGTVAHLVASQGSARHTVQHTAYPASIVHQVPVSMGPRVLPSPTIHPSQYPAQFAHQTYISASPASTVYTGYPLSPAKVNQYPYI

[7] = molecular target: Ribosomal protein S6 kinase alpha-3 (Homo sapiens) (UniProt P51812); test: Inhibition of human RSK2 assessed as residual activity at 10 uM relative to control
Ribosomal protein S6 kinase alpha-3 (Homo sapiens), sequence (P51812 whole entry): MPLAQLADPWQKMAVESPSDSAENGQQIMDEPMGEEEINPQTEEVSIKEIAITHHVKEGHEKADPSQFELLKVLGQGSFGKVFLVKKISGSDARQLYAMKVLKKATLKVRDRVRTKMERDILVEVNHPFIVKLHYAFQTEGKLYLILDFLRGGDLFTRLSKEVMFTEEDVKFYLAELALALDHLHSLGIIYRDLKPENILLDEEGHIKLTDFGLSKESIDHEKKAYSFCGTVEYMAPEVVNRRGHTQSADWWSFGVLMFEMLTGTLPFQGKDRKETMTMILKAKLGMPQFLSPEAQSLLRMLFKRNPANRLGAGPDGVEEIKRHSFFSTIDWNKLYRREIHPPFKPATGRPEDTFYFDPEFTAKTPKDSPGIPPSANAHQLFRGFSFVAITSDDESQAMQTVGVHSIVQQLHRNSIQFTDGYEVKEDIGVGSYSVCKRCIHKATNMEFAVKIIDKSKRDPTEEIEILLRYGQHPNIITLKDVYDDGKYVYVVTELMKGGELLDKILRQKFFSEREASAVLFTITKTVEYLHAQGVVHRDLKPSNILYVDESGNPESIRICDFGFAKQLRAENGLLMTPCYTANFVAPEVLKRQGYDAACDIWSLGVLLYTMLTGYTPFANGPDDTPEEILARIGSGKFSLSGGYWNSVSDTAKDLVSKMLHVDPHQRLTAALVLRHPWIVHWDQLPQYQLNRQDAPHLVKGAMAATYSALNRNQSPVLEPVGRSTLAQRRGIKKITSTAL

[8] = molecular target: T1, Inhibitor of nuclear factor kappa-B kinase subunit beta (Homo sapiens) (UniProt O14920); test: Inhibition of human IKKbeta assessed as residual activity at 10 uM relative to control
T1 sequence (whole entry): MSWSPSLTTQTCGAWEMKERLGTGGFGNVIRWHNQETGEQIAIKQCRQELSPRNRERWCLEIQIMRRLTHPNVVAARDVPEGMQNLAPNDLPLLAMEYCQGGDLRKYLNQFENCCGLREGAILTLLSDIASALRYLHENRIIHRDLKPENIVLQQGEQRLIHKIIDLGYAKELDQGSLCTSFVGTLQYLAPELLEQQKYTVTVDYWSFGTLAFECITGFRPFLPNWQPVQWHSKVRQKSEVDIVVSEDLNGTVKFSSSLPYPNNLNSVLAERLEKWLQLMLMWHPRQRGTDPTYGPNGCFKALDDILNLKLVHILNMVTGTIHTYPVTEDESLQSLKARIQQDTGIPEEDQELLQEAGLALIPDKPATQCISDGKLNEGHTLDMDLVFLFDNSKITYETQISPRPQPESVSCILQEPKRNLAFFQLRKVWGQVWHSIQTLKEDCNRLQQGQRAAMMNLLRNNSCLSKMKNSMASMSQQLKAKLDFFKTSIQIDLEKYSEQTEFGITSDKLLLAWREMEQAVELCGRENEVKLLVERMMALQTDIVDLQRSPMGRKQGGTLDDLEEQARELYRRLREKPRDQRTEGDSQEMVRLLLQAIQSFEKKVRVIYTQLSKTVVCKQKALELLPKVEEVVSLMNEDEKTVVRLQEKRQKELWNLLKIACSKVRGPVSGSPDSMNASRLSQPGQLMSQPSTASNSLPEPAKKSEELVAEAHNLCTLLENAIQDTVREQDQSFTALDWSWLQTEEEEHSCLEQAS

[9] = molecular target: SRSF protein kinase 1 (Homo sapiens) (UniProt Q96SB4); test: Inhibition of human SRPK1 assessed as residual activity at 1 uM relative to control
[10] = organism: Rattus norvegicus; test: Inhibition of rat AMPK assessed as residual activity at 1 uM relative to control
[11] = molecular target: T2, Serine/threonine-protein kinase D1 (Homo sapiens) (UniProt Q15139); test: Inhibition of human PKD1 assessed as residual activity at 10 uM relative to control
T2 sequence (whole entry): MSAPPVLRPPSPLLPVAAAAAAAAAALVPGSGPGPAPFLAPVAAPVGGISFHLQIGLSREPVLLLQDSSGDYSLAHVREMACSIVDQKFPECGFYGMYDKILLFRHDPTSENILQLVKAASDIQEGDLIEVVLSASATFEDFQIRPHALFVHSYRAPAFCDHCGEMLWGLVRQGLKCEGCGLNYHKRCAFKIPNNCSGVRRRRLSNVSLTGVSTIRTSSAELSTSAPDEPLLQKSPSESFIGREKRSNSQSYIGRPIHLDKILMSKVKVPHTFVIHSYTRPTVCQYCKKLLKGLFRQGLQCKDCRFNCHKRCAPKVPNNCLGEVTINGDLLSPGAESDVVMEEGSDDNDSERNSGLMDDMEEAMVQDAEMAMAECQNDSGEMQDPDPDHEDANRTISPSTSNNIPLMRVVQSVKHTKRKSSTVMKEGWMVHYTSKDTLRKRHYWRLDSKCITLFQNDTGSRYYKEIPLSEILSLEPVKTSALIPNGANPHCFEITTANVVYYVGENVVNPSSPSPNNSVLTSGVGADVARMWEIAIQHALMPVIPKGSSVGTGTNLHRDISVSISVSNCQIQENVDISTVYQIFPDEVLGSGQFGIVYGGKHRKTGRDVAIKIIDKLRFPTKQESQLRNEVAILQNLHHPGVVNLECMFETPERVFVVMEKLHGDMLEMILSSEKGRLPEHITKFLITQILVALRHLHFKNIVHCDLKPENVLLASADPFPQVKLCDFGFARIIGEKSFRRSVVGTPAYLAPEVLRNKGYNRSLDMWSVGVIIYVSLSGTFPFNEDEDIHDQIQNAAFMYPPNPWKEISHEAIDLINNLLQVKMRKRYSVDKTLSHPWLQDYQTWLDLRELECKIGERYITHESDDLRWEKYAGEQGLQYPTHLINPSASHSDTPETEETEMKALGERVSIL

[12] = organism: Bos taurus; test: Inhibition of cow PKA assessed as residual activity at 1 uM relative to control
[13] = molecular target: Insulin receptor-related protein (Homo sapiens) (UniProt P14616); test: Inhibition of human IRR assessed as residual activity at 1 uM relative to control
Insulin receptor-related protein (Homo sapiens), sequence (P14616 27-742 limits assumed): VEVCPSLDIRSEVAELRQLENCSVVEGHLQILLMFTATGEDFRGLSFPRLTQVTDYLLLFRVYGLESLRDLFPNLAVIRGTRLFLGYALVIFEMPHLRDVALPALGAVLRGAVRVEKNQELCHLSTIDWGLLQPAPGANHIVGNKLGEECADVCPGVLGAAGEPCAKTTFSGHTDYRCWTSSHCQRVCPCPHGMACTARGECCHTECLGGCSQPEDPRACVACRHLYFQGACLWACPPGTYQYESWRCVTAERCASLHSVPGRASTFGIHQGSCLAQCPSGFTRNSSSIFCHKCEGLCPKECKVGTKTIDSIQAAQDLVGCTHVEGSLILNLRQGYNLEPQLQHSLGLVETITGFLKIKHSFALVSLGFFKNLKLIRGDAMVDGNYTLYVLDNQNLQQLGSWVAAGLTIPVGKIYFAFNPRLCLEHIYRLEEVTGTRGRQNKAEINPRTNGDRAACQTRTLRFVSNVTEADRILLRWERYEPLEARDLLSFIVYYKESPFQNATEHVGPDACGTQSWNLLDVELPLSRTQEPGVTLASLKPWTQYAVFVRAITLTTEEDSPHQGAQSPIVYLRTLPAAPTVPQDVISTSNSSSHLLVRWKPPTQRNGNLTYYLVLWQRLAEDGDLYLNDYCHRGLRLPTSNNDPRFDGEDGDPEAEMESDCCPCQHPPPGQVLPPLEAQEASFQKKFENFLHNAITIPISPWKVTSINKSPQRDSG
Insulin receptor-related protein (Homo sapiens), sequence (P14616 747-1297 limits assumed): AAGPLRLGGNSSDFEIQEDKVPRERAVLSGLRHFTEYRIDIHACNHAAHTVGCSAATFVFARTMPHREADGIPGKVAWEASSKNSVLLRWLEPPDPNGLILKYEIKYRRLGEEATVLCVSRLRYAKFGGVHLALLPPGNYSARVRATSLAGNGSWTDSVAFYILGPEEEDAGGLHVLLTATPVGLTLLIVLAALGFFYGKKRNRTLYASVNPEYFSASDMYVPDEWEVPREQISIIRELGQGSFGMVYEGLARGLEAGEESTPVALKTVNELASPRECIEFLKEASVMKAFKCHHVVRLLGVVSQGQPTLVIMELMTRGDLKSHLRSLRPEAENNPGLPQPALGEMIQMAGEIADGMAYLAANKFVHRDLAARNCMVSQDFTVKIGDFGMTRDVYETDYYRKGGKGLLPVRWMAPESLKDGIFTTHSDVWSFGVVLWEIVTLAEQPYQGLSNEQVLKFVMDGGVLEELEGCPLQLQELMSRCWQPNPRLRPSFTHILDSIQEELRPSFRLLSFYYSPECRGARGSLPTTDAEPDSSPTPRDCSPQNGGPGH

[14] = molecular target: SRSF protein kinase 1 (Homo sapiens) (UniProt Q96SB4); test: Inhibition of human SRPK1 assessed as residual activity at 10 uM relative to control
[15] = molecular target: MAP kinase-interacting serine/threonine-protein kinase 1 (Homo sapiens) (UniProt Q9BUB5); test: Inhibition of human MNK1 assessed as residual activity at 1 uM relative to control
[16] = molecular target: Fibroblast growth factor receptor 1 (Homo sapiens, UniProt P11362); test: Inhibition of human FGFR1 assessed as residual activity at 10 uM relative to control
Fibroblast growth factor receptor 1, sequence (P11362 22-822 limits assumed): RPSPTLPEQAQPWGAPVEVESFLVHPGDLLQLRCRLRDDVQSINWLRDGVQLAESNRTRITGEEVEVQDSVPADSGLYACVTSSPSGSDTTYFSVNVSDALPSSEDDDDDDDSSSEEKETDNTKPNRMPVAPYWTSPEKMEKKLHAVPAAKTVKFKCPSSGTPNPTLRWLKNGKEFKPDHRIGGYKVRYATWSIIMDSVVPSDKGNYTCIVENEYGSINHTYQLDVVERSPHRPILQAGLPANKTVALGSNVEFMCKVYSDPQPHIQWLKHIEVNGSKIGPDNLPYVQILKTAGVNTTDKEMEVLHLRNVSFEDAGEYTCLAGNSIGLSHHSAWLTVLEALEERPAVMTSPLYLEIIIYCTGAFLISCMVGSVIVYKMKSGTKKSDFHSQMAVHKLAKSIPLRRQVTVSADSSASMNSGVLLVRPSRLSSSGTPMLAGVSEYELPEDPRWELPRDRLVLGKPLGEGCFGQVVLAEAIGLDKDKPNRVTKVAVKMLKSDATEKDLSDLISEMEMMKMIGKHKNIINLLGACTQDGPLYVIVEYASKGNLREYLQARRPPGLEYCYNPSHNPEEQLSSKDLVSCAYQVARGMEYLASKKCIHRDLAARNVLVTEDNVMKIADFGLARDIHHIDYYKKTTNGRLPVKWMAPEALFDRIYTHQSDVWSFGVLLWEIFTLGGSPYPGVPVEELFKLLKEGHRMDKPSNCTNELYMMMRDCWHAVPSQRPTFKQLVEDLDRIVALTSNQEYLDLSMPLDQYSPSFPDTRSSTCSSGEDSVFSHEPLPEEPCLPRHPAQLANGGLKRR

[17] = molecular target: MAP/microtubule affinity-regulating kinase 3 (Homo sapiens) (UniProt P27448); test: Inhibition of human MARK3 assessed as residual activity at 1 uM relative to control
[18] = molecular target: Rho-associated protein kinase 2 (Rattus norvegicus) (UniProt Q62868); test: Inhibition of rat ROCK2 assessed as residual activity at 10 uM relative to control
[19] = organism: Oryctolagus cuniculus; test: Inhibition of rabbit MKK1 assessed as residual activity at 10 uM relative to control
[20] = organism: Bos taurus; test: Inhibition of cow PKA assessed as residual activity at 10 uM relative to control
[21] = molecular target: Proto-oncogene tyrosine-protein kinase Src (Homo sapiens) (UniProt P12931); test: Inhibition of human SRC assessed as residual activity at 10 uM relative to control

Serine/threonine-protein kinase pim-1 (Homo sapiens), sequence (P11309 whole entry, looked up): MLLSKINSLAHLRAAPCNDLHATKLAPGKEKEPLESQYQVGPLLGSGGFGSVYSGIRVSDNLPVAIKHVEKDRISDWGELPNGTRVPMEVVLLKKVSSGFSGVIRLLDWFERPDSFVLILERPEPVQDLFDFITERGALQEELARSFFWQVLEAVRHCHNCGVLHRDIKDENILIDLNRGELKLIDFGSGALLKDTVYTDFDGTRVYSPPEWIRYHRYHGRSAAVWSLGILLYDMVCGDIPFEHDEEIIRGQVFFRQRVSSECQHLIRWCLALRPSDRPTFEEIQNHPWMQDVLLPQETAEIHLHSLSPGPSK

Row | Activity [1] [%] | Activity [2] [%] | Activity [3] [%] | Activity [4] [%] | Activity [5] [%] | Activity [6] [%] | Activity [7] [%] | Activity [8] [%] | Activity [9] [%] | Activity [10] [%] | Activity [11] [%] | Activity [12] [%] | Activity [13] [%] | Activity [14] [%] | Activity [15] [%] | Activity [16] [%] | Activity [17] [%] | Activity [18] [%] | Activity [19] [%] | Activity [20] [%] | SMILES | other results
1 | 89 | 83 | 80 | 121 | 115 | 31 | 87 | 90 | 93 | 93 | 99 | 101 | 61 | 91 | 79 | 68 | 84 | 111 | 103 | 94 | CCCC(=O)Nc1n[nH]c2ncc(-c3cccnc3)cc12 | Activity [21]: 72%
2 | 105 | 119 | 104 | 95 | 103 | 94.2 | 103 | 80.4 | 87.7 | 82.8 | 75.3 | 81.7 | 83.2 | 91.3 | 101 | 99.6 | 94.6 | 92.3 | 66.8 | 92.8 | CC(=O)Nc1nccc(-c2c(-c3ccccc3)noc2C)n1 | Activity [21]: 91.9%
3 | 73.1 | 100 | 48 | 93.9 | 76.1 | 42.4 | 78.3 | 72 | 95.9 | 74.3 | 44.3 | 95 | 73.9 | 89 | 70 | 54.6 | 62.6 | 58.7 | 45.9 | 83.3 | CC(=O)Nc1cccc(-c2cnc3[nH]nc(C)c3c2)c1 | Activity [21]: 23.8%
